Test results from PMC5093207, “Pre-clinical Evaluation of a Cyanine-Based SPECT Probe for Multimodal Tumor Necrosis Imaging” (Molecular Imaging and Biology, 2016).

Columns and labels:
[1] = Radioactivity remaining in the whole mouse body after injection (clearance); format: in vivo; conditions: for total injected dose retained in the body: whole mouse body
Protocol: (§1) To study the specificity of the radiolabeled HQ4-DTPA versus radiolabeled DTPA in vivo, 10 μg [^111In]DTPA-HQ4 (=10 nmol per mouse) or 10 μg [^111In]DTPA was injected i.v. into mice bearing 4T1-luc2 tumors (n = 3 and 4, respectively). The total injected dose (ID) in each mouse was determined in a dose-calibrator (VDC101, Veenstra Instruments, Joure, the Netherlands).
Supplementary Figure 4: Biodistribution of [111In]DTPA. a) Biodistribution of the free chelate [111In]DTPA in 4T1 tumor bearing mice. 24h after probe injection (10 µg, 30-35 MBq), mice (n=4) were sacrificed and the organs, body fluids and tumors were dissected, weighted and measured for radioactivity in a gamma counter. At each time point, the amount of radioactivity in each organ and tumor is expressed as percentage of the injected dose divided by the weight (%ID/w). b) Total amount of remaining [111In]DTPA-HQ4 and [111In]DTPA in the whole mouse body (% of ID) at the indicated time points 6 to 72h after probe injection.
(§2) (1 picture or pasted object on this page, not shown here)

[2] = system: 4T1-luc2 cells; experiment: Dry ice dead cell assay (cryo-induced cell death), fluorescence and radioactivity read-out; format: cell-based, mouse; conditions: 100 nM, 15 min incubation, 4T1 cells; for accumulation in the dead cells area by radioactivity (RA) measurement: phosphor imaging
Protocol: In vitro, cell death was studied using a cryo-induced cell death assay as previously described. In short, 4T1-luc2 cells were seeded onto 24-well tissue culture plates (Sigma-Aldrich) and grown until confluent. After discarding the medium, a bar of dry ice 3–5 mm in diameter was applied to the underside of the culture well for 20 s. Subsequently, the cells were incubated in the dark for 15 min at RT with HQ4 at a concentration of 100 nM. After incubation, the samples were gently washed with phosphate-buffered saline (PBS) and subsequently scanned for fluorescence using the Odyssey Infrared Imager 9120 (LI-COR) and for radioactivity via phosphor imaging on the Typhoon 9410 imager (GE Healthcare).
Fig. 2 In vitro necrosis avid properties of [^111In]DTPA-HQ4 by fluorescence and radioactivity measurements. a Necrotic cell death in confluent monolayers of 4T1 mouse breast cancer cells was induced by applying dry ice to the underside of the culture well. Cells were subsequently incubated for 15 min with one of the following: HQ4, HQ4-DTPA, [^111In]DTPA-HQ4, [^111In]DTPA, or ^111In-Cl3 (100 nM, 10 μg). After subsequent washing with PBS, cells were imaged either for fluorescence (FLI, upper panel) or for radioactivity (RA, lower panel). NL = not labeled. b Calculated signal-to-background (S/B) ratio (FLI and RA) of the different compounds obtained from the dry ice assay. The S/B ratio was defined as the signal intensity obtained from the area of dead cells in the center of the well divided by the signal intensity obtained from an area of living cells of the same size in the periphery.

[3] = system: 4T1 tumor bearing mice; experiment: Biodistribution (gamma counting of organs) in 4T1 tumor bearing mice, model of spontaneous tumor necrosis; format: in vivo, mouse; conditions: 24 h after i.v. injection, 10 μg, 30-35 MBq
Protocol: Approximately 1 × 10^5 4T1-luc2 cells, suspended in 15 μl PBS, were implanted bilateral and subcutaneously onto the upper back of nude mice. Tumors were grown until they reached a size of 6–7 mm in diameter which developed roughly after 1.5–2 weeks of tumor implantation.
as §1
After the last imaging time point, mice were sacrificed and several tissues were excised, weighed, and counted for radioactivity (Wizard2 2470 automatic gamma scintillation counter, Perkin Elmer, USA) to determine the percentage of the injected dose per gram (%ID/g). The %ID/g was calculated as follows: (((MBq measured in tissue/injected dose) × 100 %) / weight of tissue).
Fig. 3 Optical imaging, SPECT, and biodistribution of [^111In]DTPA-HQ4 in 4T1 breast tumor bearing mice. a Whole body FLI (coronal view) obtained 6–72 h after tail vein injection of [^111In]DTPA-HQ4 (10 nmol, 30–35 MBq). […] Six, 24, 48, and 72 h after probe injection, mice (n = 3 per time point) were sacrificed and the organs, body fluids, and tumors were dissected, weighed, and measured for radioactivity in a gamma counter. At each time point, the amount of radioactivity in the organs is expressed as percentage of the injected dose divided by […] (%ID/w). d TUNEL-stained histological section of a representative 4T1 mouse breast tumor showing a large area of necrosis (brown).
Supplementary Figure 4: Biodistribution of [111In]DTPA. a) Biodistribution of the free chelate [111In]DTPA in 4T1 tumor bearing mice. 24h after probe injection (10 µg, 30-35 MBq), mice (n=4) were sacrificed and the organs, body fluids and tumors were dissected, weighted and measured for radioactivity in a gamma counter. […]

[4] = system: 4T1-luc2 cells; experiment: In vitro MTS viability assay; format: cell-based; conditions: Mus musculus, 24 h, 4T1 cells, read-out: IC50 of induced cell death
Protocol: 4T1-luc2 cells were plated in a 96-well plate (Costar) in 100 μl medium at a density of 10,000 cells per well and left over night to adhere. The next day, the medium was replaced with medium containing the experimental compounds: HQ4, HQ4-DTPA, HQ5, and Gambogic acid (GA), three wells per condition. After 24 h, cell viability was measured using a nonradioactive colorimetric MTS viability assay (Promega Benelux) according to the manufacturer’s protocol. Optical absorption was measured at 490 nm with a Versamax absorbance microplate reader (Molecular Devices).
Supplementary Figure 3: MTS cell viability assay of various agents.
Confluent cultures of 4T1 cells were incubated for 24hr with various concentrations HQ4, HQ4-DTPA, HQ5 or the natural anti-cancer compound Gambogic Acid (GA). Relative cell viability (%) was expressed as a percentage relative to the untreated control.
GA induced cell death with an IC50 of around 6µM.
as §2

O=C([O-])CN(CCN(CC(=O)[O-])CC(=O)[O-])CCN(CC(=O)[O-])CC(=O)[O-].[111In+3].[H+].[H+] [[^111In]DTPA]
total injected dose retained in the body ([1]; 24 h after injection): 10%
total injected dose retained in the body ([1]; 48 h after injection): 8%
clearance rate relative to [111In]DTPA-HQ4 ([1]; fold faster than [111In]DTPA-HQ4): about 8 fold
accumulation in the dead cells area by radioactivity (RA) measurement [2]: neither [^111In]DTPA nor free ^111In-Cl3 accumulated in the dead cells area
radioactivity in kidneys [3]: 5.0 %ID/w
radioactivity in liver [3]: 0.6 %ID/w
radioactivity in tumors [3]: 0.5 %ID/w

CCCNS(=O)(=O)c1cccc2c3c(ccc12)[N+](CCCCCC(=O)NCCOCCOCCNC(=O)CN(CCN(CCN(CC(=O)O)CC(=O)O)CC(=O)O)CC(=O)O)=C(/C=C/C=C/C=C1/N(CCCCS(=O)(=O)[O-])c2ccc4ccccc4c2C1(C)C)C3(C)C [HQ4-DTPA]
accumulation in the area of dead cells by fluorescence imaging ([2]; FLI): strongly accumulated in the area of dead cells

CC(C)=CCC[C@]1(C)C=Cc2c(O)c3c(c(CC=C(C)C)c2O1)O[C@]12C(=C[C@@H]4C[C@H]1C(C)(C)O[C@@]2(C/C=C(/C)C(=O)O)C4=O)C3=O [GA, Gambogic acid]
IC50 [4]: ~6 µM

[Cl][In]([Cl])[Cl] [^111In-Cl3, ^111indium-chloride]
accumulation in the dead cells area by radioactivity (RA) measurement [2]: neither [^111In]DTPA nor free ^111In-Cl3 accumulated in the dead cells area
